Experimental findings from ChEMBL document CHEMBL1152089, “Alkyl ether derivatives of the FK-506 related, immunosuppressive macrolide L-683,742 (C31-O-desmethyl ascomycin)” (Bioorg Med Chem Lett, 1994) are described below.

For experiment [1], the target named is T1, Peptidyl-prolyl cis-trans isomerase FKBP1A (Homo sapiens, UniProt P62942). In words: Ability to bind the major cystolic receptor FKBP12 by using competitive binding assay.
The species entered for experiment [2] is Mus musculus. In words: In vitro immunosuppressive activity against proliferation of antigen stimulated murine splenic T cells. The class given is functional, organism-based. The settings on record: T-cell.
Experiment [3] deals with T1, Peptidyl-prolyl cis-trans isomerase FKBP1A. In words: Ability to bind the major cystolic receptor FK506 binding protein 12 by using competitive binding assay.

T1 sequence (P62942 whole entry): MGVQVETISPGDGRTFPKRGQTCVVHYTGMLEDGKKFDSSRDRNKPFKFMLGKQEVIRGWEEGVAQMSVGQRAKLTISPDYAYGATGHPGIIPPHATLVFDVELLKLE

As to `CC[C@@H]1/C=C(\C)C[C@H](C)C[C@H](OC)[C@H]2OC(O)(C(=O)C(=O)N3CCCC[C@H]3C(=O)O[C@H](/C(C)=C/[C@@H]3CC[C@@H](O)[C@H](OC(C)C)C3)[C@H](C)[C@@H](O)CC1=O)[C@@H](C)C[C@@H]2OC`, the EC50 (in general, the concentration at which the effect is half-maximal) in experiment [1] came out at 3.4 nM. Further, in experiment [2], it took 0.59 nM to reach half-maximal inhibition (IC50).
Compound `CC[C@@H]1/C=C(\C)C[C@H](C)C[C@H](OC)[C@H]2OC(O)(C(=O)C(=O)N3CCCC[C@H]3C(=O)O[C@H](/C(C)=C/[C@@H]3CC[C@@H](O)[C@H](OCc4ccco4)C3)[C@H](C)[C@@H](O)CC1=O)[C@@H](C)C[C@@H]2OC` returned a concentration giving a half-maximal response (EC50) in experiment [3] of 4.6 nM. Besides, half-maximal inhibition in experiment [2] (IC50) was put at 3.6 nM.
In the case of `C=C(C)CO[C@@H]1CC[C@@H](/C=C(\C)[C@H]2OC(=O)[C@@H]3CCCCN3C(=O)C(=O)C3(O)O[C@H]([C@@H](OC)C[C@@H](C)C/C(C)=C/[C@@H](CC)C(=O)C[C@H](O)[C@H]2C)[C@@H](OC)C[C@@H]3C)C[C@H]1O`, in experiment [2], the IC50 (commonly the midpoint of a concentration-inhibition curve) was 3.4 nM.
`CC[C@@H]1/C=C(\C)C[C@H](C)C[C@H](OC)[C@H]2OC(O)(C(=O)C(=O)N3CCCC[C@H]3C(=O)O[C@H](/C(C)=C/[C@@H]3CC[C@@H](OCc4cccs4)[C@H](O)C3)[C@H](C)[C@@H](O)CC1=O)[C@@H](C)C[C@@H]2OC` yielded an EC50 in experiment [3] of 11.8 nM. Besides, 2.8 nM corresponded to half-maximal inhibition in experiment [2] (IC50).
`C=CC(C)O[C@@H]1CC[C@@H](/C=C(\C)[C@H]2OC(=O)[C@@H]3CCCCN3C(=O)C(=O)C3(O)O[C@H]([C@@H](OC)C[C@@H](C)C/C(C)=C/[C@@H](CC)C(=O)C[C@H](O)[C@H]2C)[C@@H](OC)C[C@@H]3C)C[C@H]1O` (some centres not stated) had an EC50 in experiment [3] of 14.9 nM. This compound also gave an IC50 in experiment [2] of 6.6 nM.
As to `CC[C@@H]1/C=C(\C)C[C@H](C)C[C@H](OC)[C@H]2OC(O)(C(=O)C(=O)N3CCCC[C@H]3C(=O)O[C@H](/C(C)=C/[C@@H]3CC[C@@H](OCc4ccco4)[C@H](O)C3)[C@H](C)[C@@H](O)CC1=O)[C@@H](C)C[C@@H]2OC`, a half-maximal effect in experiment [3] (EC50) was put at 15.6 nM. For the same compound, it took 7.8 nM to reach half-maximal inhibition in experiment [2] (IC50).
For the compound `CC[C@@H]1/C=C(\C)C[C@H](C)C[C@H](OC)[C@H]2O[C@@](O)(C(=O)C(=O)N3CCCC[C@H]3C(=O)O[C@H](/C(C)=C/[C@@H]3CC[C@@H](O)[C@H](O)C3)[C@H](C)[C@@H](O)CC1=O)[C@@H](C)C[C@@H]2OC`, the concentration giving a half-maximal response (EC50) in experiment [3] is 5 nM. In experiment [2], this compound registered an IC50 of 1.8 nM.
On to `C=CCO[C@@H]1CC[C@@H](/C=C(\C)[C@H]2OC(=O)[C@@H]3CCCCN3C(=O)C(=O)C3(O)O[C@H]([C@@H](OC)C[C@@H](C)C/C(C)=C/[C@@H](CC)C(=O)C[C@H](O)[C@H]2C)[C@@H](OC)C[C@@H]3C)C[C@H]1O`, for which the EC50 in experiment [3] is 6.1 nM. The compound further came in with an IC50 in experiment [2] of 5.5 nM.
In the case of `C=CC(C)O[C@@H]1C[C@H](/C=C(\C)[C@H]2OC(=O)[C@@H]3CCCCN3C(=O)C(=O)C3(O)O[C@H]([C@@H](OC)C[C@@H](C)C/C(C)=C/[C@@H](CC)C(=O)C[C@H](O)[C@H]2C)[C@@H](OC)C[C@@H]3C)CC[C@H]1O` (some centres not stated), the EC50 in experiment [3] worked out at 6.6 nM. Further, in experiment [2], it took 0.73 nM to reach half-maximal inhibition (IC50).
For `C/C=C/CO[C@@H]1C[C@H](/C=C(\C)[C@H]2OC(=O)[C@@H]3CCCCN3C(=O)C(=O)C3(O)O[C@H]([C@@H](OC)C[C@@H](C)C/C(C)=C/[C@@H](CC)C(=O)C[C@H](O)[C@H]2C)[C@@H](OC)C[C@@H]3C)CC[C@H]1O`, it took 7 nM to reach a half-maximal effect in experiment [3] (EC50). In experiment [2], this compound had an IC50 of 2.1 nM.
`C=CCO[C@@H]1C[C@H](/C=C(\C)[C@H]2OC(=O)[C@@H]3CCCCN3C(=O)C(=O)C3(O)O[C@H]([C@@H](OC)C[C@@H](C)C/C(C)=C/[C@@H](CC)C(=O)C[C@H](O)[C@H]2C)[C@@H](OC)C[C@@H]3C)CC[C@H]1O`: the midpoint of the response in experiment [3], the EC50, lay at 2.7 nM. This compound had an IC50 in experiment [2] of 0.68 nM.
In turn, `CC[C@@H]1/C=C(\C)C[C@H](C)C[C@H](OC)[C@H]2OC(O)(C(=O)C(=O)N3CCCC[C@H]3C(=O)O[C@H](/C(C)=C/[C@@H]3CC[C@@H](OC(C)C)[C@H](O)C3)[C@H](C)[C@@H](O)CC1=O)[C@@H](C)C[C@@H]2OC` yielded an IC50 in experiment [2] of 9.1 nM.
Regarding `CC[C@@H]1/C=C(\C)C[C@H](C)C[C@H](OC)[C@H]2OC(O)(C(=O)C(=O)N3CCCC[C@H]3C(=O)O[C@H](/C(C)=C/[C@@H]3CC[C@@H](OCc4ccsc4)[C@H](O)C3)[C@H](C)[C@@H](O)CC1=O)[C@@H](C)C[C@@H]2OC`, the EC50 in experiment [3] worked out at 12 nM. The compound also registered an IC50 in experiment [2] of 4.4 nM.
The compound `CC[C@@H]1/C=C(\C)C[C@H](C)C[C@H](OC)[C@H]2OC(O)(C(=O)C(=O)N3CCCC[C@H]3C(=O)O[C@H](/C(C)=C/[C@@H]3CC[C@@H](O)[C@H](OCc4ccsc4)C3)[C@H](C)[C@@H](O)CC1=O)[C@@H](C)C[C@@H]2OC` displayed an EC50 in experiment [3] of 5.7 nM. The same compound registered an IC50 in experiment [2] of 3.2 nM.
The matching figures for `C/C=C/CO[C@@H]1CC[C@@H](/C=C(\C)[C@H]2OC(=O)[C@@H]3CCCCN3C(=O)C(=O)C3(O)O[C@H]([C@@H](OC)C[C@@H](C)C/C(C)=C/[C@@H](CC)C(=O)C[C@H](O)[C@H]2C)[C@@H](OC)C[C@@H]3C)C[C@H]1O`: 9.2 nM and 8.6 nM.
For `C=C(C)CO[C@@H]1C[C@H](/C=C(\C)[C@H]2OC(=O)[C@@H]3CCCCN3C(=O)C(=O)C3(O)O[C@H]([C@@H](OC)C[C@@H](C)C/C(C)=C/[C@@H](CC)C(=O)C[C@H](O)[C@H]2C)[C@@H](OC)C[C@@H]3C)CC[C@H]1O`, in experiment [2], the IC50 stood at 1.9 nM.
Consider `CC[C@@H]1/C=C(\C)C[C@H](C)C[C@H](OC)[C@H]2OC(O)(C(=O)C(=O)N3CCCC[C@H]3C(=O)O[C@H](/C(C)=C/[C@@H]3CC[C@@H](O)[C@H](OCc4cccs4)C3)[C@H](C)[C@@H](O)CC1=O)[C@@H](C)C[C@@H]2OC`, for which the EC50 in experiment [3] stood at 10.3 nM. In experiment [2], this compound registered a half-maximal inhibitory concentration (IC50) of 1.1 nM.
For `C=CC[C@@H]1/C=C(\C)C[C@H](C)C[C@H](OC)[C@H]2O[C@@](O)(C(=O)C(=O)N3CCCC[C@H]3C(=O)O[C@H](/C(C)=C/[C@@H]3CC[C@@H](O)[C@H](OC)C3)[C@H](C)[C@@H](O)CC1=O)C(C)C[C@@H]2OC` (single isomer, unassigned) [TACROLIMUS ANHYDROUS], the concentration for half-maximal inhibition (IC50) in experiment [2] came out at 0.29 nM.
